Source: article PMC3978654, “Surface plasmon resonance using the catalytic domain of soluble guanylate cyclase allows the detection of enzyme activators^” (Bioorganic & Medicinal Chemistry Letters, 2014)

Columns and labels:
[1] = target: T1, soluble guanylate cyclase α1β1 (sGC) (Homo sapiens, UniProt Q02153); test: SPR (Biacore T200) at […]; assay type: binding
T1 construct: gene GUCY1B1; full length sGC; with sGC α1 subunit (GUCY1A1)
T1 sequence (Q02153 1-619): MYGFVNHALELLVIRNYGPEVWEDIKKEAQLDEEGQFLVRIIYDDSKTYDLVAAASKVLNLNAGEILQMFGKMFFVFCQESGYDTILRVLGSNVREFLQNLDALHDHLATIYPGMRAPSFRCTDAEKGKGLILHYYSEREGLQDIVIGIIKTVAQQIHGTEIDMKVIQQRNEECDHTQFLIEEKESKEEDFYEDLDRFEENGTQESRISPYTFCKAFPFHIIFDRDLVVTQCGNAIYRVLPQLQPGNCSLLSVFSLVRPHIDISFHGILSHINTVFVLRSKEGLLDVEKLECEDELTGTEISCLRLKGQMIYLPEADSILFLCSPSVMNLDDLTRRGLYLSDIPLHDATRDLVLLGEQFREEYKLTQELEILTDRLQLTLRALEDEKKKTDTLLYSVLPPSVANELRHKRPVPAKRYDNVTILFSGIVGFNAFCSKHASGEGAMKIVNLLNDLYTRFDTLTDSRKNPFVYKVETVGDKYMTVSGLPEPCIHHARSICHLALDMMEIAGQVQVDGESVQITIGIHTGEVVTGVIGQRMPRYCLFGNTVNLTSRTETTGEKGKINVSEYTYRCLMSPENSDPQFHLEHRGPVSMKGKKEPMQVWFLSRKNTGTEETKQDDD
T1 sequence (Q02108 1-690 partner): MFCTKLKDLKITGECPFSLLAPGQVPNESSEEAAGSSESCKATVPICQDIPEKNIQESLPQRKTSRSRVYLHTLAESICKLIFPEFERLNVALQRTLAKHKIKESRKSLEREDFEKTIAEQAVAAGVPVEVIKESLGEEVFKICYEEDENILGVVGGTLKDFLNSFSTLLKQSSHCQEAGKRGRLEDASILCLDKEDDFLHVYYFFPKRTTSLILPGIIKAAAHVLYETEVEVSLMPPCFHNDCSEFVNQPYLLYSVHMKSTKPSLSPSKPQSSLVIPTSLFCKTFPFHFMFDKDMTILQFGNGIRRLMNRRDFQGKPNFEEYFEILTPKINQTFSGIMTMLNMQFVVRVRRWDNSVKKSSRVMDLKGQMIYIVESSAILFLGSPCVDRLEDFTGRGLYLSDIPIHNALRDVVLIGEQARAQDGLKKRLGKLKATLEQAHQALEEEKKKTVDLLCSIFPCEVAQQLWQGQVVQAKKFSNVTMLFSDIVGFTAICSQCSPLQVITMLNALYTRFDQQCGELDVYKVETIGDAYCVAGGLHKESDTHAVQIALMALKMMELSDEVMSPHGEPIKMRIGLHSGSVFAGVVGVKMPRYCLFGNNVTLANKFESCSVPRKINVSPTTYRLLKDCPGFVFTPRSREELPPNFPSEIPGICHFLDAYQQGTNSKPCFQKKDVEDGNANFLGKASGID

[2] = target: T2, soluble guanylate cyclase α1β1 (sGC) (Homo sapiens, UniProt Q02108+Q02153); test: SPR (Biacore T200), concentration series; assay type: binding
T2 construct: gene GUCY1B1; α1β1 catalytic domain (sGCcat); with sGC α1 subunit (GUCY1A1)
T2 sequence (Q02153 408-619 limits assumed): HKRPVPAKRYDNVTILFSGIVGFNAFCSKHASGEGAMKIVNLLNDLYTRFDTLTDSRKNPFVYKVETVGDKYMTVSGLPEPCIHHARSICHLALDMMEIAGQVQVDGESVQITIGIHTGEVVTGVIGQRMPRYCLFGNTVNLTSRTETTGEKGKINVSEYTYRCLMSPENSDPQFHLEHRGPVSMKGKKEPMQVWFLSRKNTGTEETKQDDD
T2 sequence (Q02108 467-690): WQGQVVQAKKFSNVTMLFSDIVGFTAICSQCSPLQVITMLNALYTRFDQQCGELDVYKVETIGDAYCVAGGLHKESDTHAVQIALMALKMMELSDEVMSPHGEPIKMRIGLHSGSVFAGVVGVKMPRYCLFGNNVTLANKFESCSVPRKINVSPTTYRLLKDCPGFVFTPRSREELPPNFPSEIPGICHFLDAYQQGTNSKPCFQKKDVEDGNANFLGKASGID

With O=C(O)CCCCN(CCc1ccccc1OCc1ccc(CCc2ccccc2)cc1)Cc1ccc(C(=O)O)cc1 [compound 1, BAY 58-2667] the “SPR (Biacore T200) at 100 μM” value [1] was “showed strong binding to the full length sGC and only non-specific binding to sGCcat”.
Nc1nc2c(ncn2[C@@H]2O[C@H](COP(=O)(O)OP(=O)(O)OP(=O)(O)O)[C@@H](O)[C@H]2O)c(=O)[nH]1 [GTP] was tested, and the Kd [2] was 326 µM.
